Assay results: US11820773B2, “Tricyclic compounds” (ALIGOS THERAPEUTICS, INC., priority 2020, dated 2023)
Structures can show the parent of a compound that is named as a salt.

Tested on: HBV
Assay: HBV-DNA antiviral assay using HepG2.117 cells (intracellular HBV DNA by qPCR)
Format: cell-based, genotype D HBV
Details: HBV DNA inhibition, 3 days incubation, 2% DMSO
Protocol: The following assay procedure describes the HBV antiviral assay, using HepG2.117 cells, which carry a stably integrated genotype D HBV genome under the control of a Tet-off promoter, and intracellular HBV DNA quantification as endpoint. Cell viability is assessed in parallel by measuring the intracellular ATP content using CellTiter-Glo 2.0 (Promega).
On day 0, HepG2.117 cells (which are maintained in routine cell culture with doxycycline present in the medium at a final concentration of 1 μg/mL) were seeded in 96-well plates (white with clear bottom) at a density of 2.0×10^4 cells/well (0.1 mL/well) in medium without doxycycline to induce pgRNA transcription and subsequent formation of HBV particles. The cells were incubated at 37° C. and 5% CO2.
On day 1, medium was removed from each well, the test articles were diluted in culture medium without doxcycyline and 100 μL was added to cell culture wells (9 concentrations, 4-fold dilution). For each plate, 6 untreated (merely DMSO) wells were included. The final concentration of DMSO in the culture medium was 2%. Each plate was prepared in duplicate (one for HBV DNA extraction, one for CellTiter-Glo 2.0 measurement). The cells were incubated at 37° C. and 5% CO2 for 3 days.
On day 4, cell viability was assessed using CellTiter-Glo 2.0 and cell lysates were prepared for HBV DNA extraction and subsequent quantification by qPCR.
HBV DNA Quantification by qPCR
Medium was removed from each well and 100 μL of 0.33% NP-40 in H2O was added to each well. Plates were sealed, incubated at 4° C. for 5 mins, vortexed extensively and centrifuged briefly. Next, 35 μL of lysate was added to 65 μL QuickExtract DNA Extraction Solution (Epicentre) in a PCR plate for each well. PCR plate was incubated at 65° C. for 6 mins, 98° C. for 2 mins and finally cooled to 4° C. HBV DNA was then quantified by qPCR with HBV-specific primers and probes as specified in Table 1 using the Bio-Rad SSOAdvanced Universal Probes Supermix on a CFX96 machine (Bio-Rad). The PCR cycle program consisted of 95° C. for 3 mins, followed by 40 cycles at 95° C. for 10 sec and 60° C. for 30 sec.
A DNA standard was prepared by dilution of an IDT gBlock corresponding to the amplicon with concentrations ranging from 10^2 to 10^8 copies/input (i.e. per 4 μL) and used to generate a standard curve by plotting Cq values vs. HBV DNA standard concentration. The quantity of HBV DNA in each sample was determined by interpolating from the standard curve.
Cell viability was calculated as follows: % Cell viability=(luminescence value of test sample)/(average luminescence value of 2% DMSO control)×100%. HBV DNA inhibition was calculated as follows: 100−(HBV DNA copy number of test sample)/(average HBV DNA copy number of 2% DMSO control)×100%. No normalization to entecavir was required due to the excellent dynamic window of this assay. The CC50, EC50 and EC90 values were determined by dose-response curves fitted by GraphPad Prism using “log (agonist) vs. response—Variable slope”.

Question: Which EC50 does the source give for CNC(=O)c1ccc(-n2c(=O)c3c(n4ncc(CC5CC5)c24)CN(C(=O)c2ccc(Br)c(C(F)(F)F)c2)C(C)C3)cc1 (racemic) [Compound 21a, N-methyl-4-[rac-(11R)-12-[4-bromo-3-(trifluoromethyl)benzoyl]-5-(cyclopropylmethyl)-11-methyl-8-oxo-2,3,7,12-tetrazatricyclo[7.4.0.0^2,6]trideca-1(9),3,5-trien-7-yl]benzamide] here?
Answer: < 50 nM

Question: With CNC(=O)c1ccc(-n2c(=O)c3c(n4ncc(CC5CC5)c24)CN(C(=O)c2ccc(Br)c(C(F)(F)F)c2)C(C)C3)cc1 (racemic) [Compound 21b, N-methyl-4-[rac-(11S)-12-[4-bromo-3-(trifluoromethyl)benzoyl]-5-(cyclopropylmethyl)-11-methyl-8-oxo-2,3,7,12-tetrazatricyclo[7.4.0.0^2,6]trideca-1(9),3,5-trien-7-yl]benzamide] as the molecule, how does the EC50 read?
Answer: 50 to 500 nM

Same assay, conditions: Hepatitis B virus, 72 h, HBV DNA inhibition, 3 days incubation, 2% DMSO

Question: Which EC50 does the source give for CC(C)[C@@H](N)C(=O)OCN(C)C(=O)c1ccc(-n2c(=O)c3c(n4ncc(CC5CC5)c24)CN(C(=O)c2ccc(Br)c(C(F)(F)F)c2)[C@@H](C)C3)cc1 (racemic) [Compound 96, [[4-[(11SR)-12-[4-bromo-3-(trifluoromethyl)benzoyl]-5-(cyclopropylmethyl)-11-methyl-8-oxo-2,3,7,12-tetrazatricyclo[7.4.0.0^2,6]trideca-1(9),3,5-trien-7-yl]benzoyl]-methyl-amino]methyl (2R)-2-amino-3-methyl-butanoate; hydrochloride] here?
Answer: 500 to 5000 nM

Question: Which EC50 does the source give for C[C@H]1Cc2c(n3ncc(CC4CC4)c3n(-c3ccc(C(=O)N(C)COC(=O)CN)cc3)c2=O)CN1C(=O)c1ccc(Br)c(C(F)(F)F)c1 (racemic) [Compound 97, [methyl-[4-[rac-(11S)-12-[4-bromo-3-(trifluoromethyl)benzoyl]-5-(cyclopropylmethyl)-11-methyl-8-oxo-2,3,7,12-tetrazatricyclo[7.4.0.0^2,6]trideca-1(9),3,5-trien-7-yl]benzoyl]amino]methyl 2-aminoacetate] here?
Answer: > 5000 nM

Question: Which EC50 does the source give for COP(=O)(OC)OCN(C)C(=O)c1ccc(-n2c(=O)c3c(n4ncc(CC5CC5)c24)CN(C(=O)c2ccc(Br)c(C(F)(F)F)c2)[C@@H](C)C3)cc1 (racemic) [Compound 103, Dimethyl [methyl-[4-[rac-(11S)-12-[4-bromo-3-(trifluoromethyl)benzoyl]-5-(cyclopropylmethyl)-11-methyl-8-oxo-2,3,7,12-tetrazatricyclo[7.4.0.0^2,6]trideca-1(9),3,5-trien-7-yl]benzoyl]amino]methyl Phosphate] here?
Answer: > 5000 nM

Question: Which EC50 does the source give for COP(=O)(O)OCN(C)C(=O)c1ccc(-n2c(=O)c3c(n4ncc(CC5CC5)c24)CN(C(=O)c2ccc(Br)c(C(F)(F)F)c2)[C@@H](C)C3)cc1 (racemic) [Compound 107, Methyl [methyl-[4-[rac-(11S)-12-[4-bromo-3-(trifluoromethyl)benzoyl]-5-(cyclopropylmethyl)-11-methyl-8-oxo-2,3,7,12-tetrazatricyclo[7.4.0.0^2,6]trideca-1(9),3,5-trien-7-yl]benzoyl]amino]methyl Hydrogen Phosphate] here?
Answer: > 5000 nM

Question: How did the EC50 turn out when CNC(=O)c1ccc(-n2c(=O)c3c(n4ncc(CC5CC5)c24)CN(C(=O)c2ccc(Br)c(Cl)c2)[C@H](C)C3)cc1 (stereo in doubt) [Compound 22a, N-methyl-4-[rac-(11R)-12-[4-bromo-3-chlorobenzoyl]-5-(cyclopropylmethyl)-11-methyl-8-oxo-2,3,7,12-tetrazatricyclo[7.4.0.0^2,6]trideca-1(9),3,5-trien-7-yl]benzamide] was run?
Answer: < 50 nM

Question: How did the EC50 turn out when CNC(=O)c1ccc(-n2c(=O)c3c(n4ncc(CC5CC5)c24)CN(C(=O)c2ccc(Br)c(Cl)c2)[C@@H](C)C3)cc1 (stereo in doubt) [Compound 22b, N-methyl-4-[rac-(11S)-12-[4-bromo-3-chlorobenzoyl]-5-(cyclopropylmethyl)-11-methyl-8-oxo-2,3,7,12-tetrazatricyclo[7.4.0.0^2,6]trideca-1(9),3,5-trien-7-yl]benzamide] was run?
Answer: < 50 nM

Question: How did the EC50 turn out when CNC(=O)c1ccc(-n2c(=O)c3c(n4ncc(CC5CCC5)c24)CN(C(=O)c2ccc(Br)c(C(F)(F)F)c2)[C@H](C)C3)cc1 (stereo in doubt) [Compound 37a, N-methyl-4-[rac-(11R)-12-[4-bromo-3-(trifluoromethyl)benzoyl]-5-(cyclobutylmethyl)-11-methyl-8-oxo-2,3,7,12-tetrazatricyclo[7.4.0.0^2,6]trideca-1(9),3,5-trien-7-yl]benzamide] was run?
Answer: < 50 nM

Question: CNC(=O)c1ccc(-n2c(=O)c3c(n4ncc(CC5CCC5)c24)CN(C(=O)c2ccc(Br)c(C(F)(F)F)c2)[C@@H](C)C3)cc1 (stereo in doubt) [Compound 37b, N-methyl-4-[rac-(11S)-12-[4-bromo-3-(trifluoromethyl)benzoyl]-5-(cyclobutylmethyl)-11-methyl-8-oxo-2,3,7,12-tetrazatricyclo[7.4.0.0^2,6]trideca-1(9),3,5-trien-7-yl]benzamide] was tested. Which EC50 did it give?
Answer: 50 to 500 nM

Question: With CNC(=O)c1ccc(-n2c(=O)c3c(n4ncc(Cc5ccccc5)c24)CN(C(=O)c2ccc(Br)c(C(F)(F)F)c2)[C@H](C)C3)cc1 (stereo in doubt) [Compound 38a, N-methyl-4-[rac-(11R)-5-benzyl-12-[4-bromo-3-(trifluoromethyl)benzoyl]-11-methyl-8-oxo-2,3,7,12-tetrazatricyclo[7.4.0.0^2,6]trideca-1(9),3,5-trien-7-yl]benzamide] as the molecule, how does the EC50 read?
Answer: < 50 nM

Question: Which EC50 does the source give for CNC(=O)c1ccc(-n2c(=O)c3c(n4ncc(Cc5ccccc5)c24)CN(C(=O)c2ccc(Br)c(C(F)(F)F)c2)[C@@H](C)C3)cc1 (stereo in doubt) [Compound 38b, N-methyl-4-[rac-(11S)-5-benzyl-12-[4-bromo-3-(trifluoromethyl)benzoyl]-11-methyl-8-oxo-2,3,7,12-tetrazatricyclo[7.4.0.0^2,6]trideca-1(9),3,5-trien-7-yl]benzamide] here?
Answer: < 50 nM

Question: Which EC50 does the source give for C[C@@H]1Cc2c(n3ncc(Cc4ccccc4)c3n(-c3ccc(-c4nncn4C)cc3)c2=O)CN1C(=O)c1ccc(Br)c(C(F)(F)F)c1 (stereo in doubt) [Compound 39a, rac-(11R)-5-benzyl-12-[4-bromo-3-(trifluoromethyl)benzoyl]-11-methyl-7-[4-(4-methyl-1,2,4-triazol-3-yl)phenyl]-2,3,7,12-tetrazatricyclo[7.4.0.0^2,6]trideca-1(9),3,5-trien-8-one] here?
Answer: < 50 nM

Question: For C[C@H]1Cc2c(n3ncc(Cc4ccccc4)c3n(-c3ccc(-c4nncn4C)cc3)c2=O)CN1C(=O)c1ccc(Br)c(C(F)(F)F)c1 (stereo in doubt) [Compound 39b, rac-(11S)-5-benzyl-12-[4-bromo-3-(trifluoromethyl)benzoyl]-11-methyl-7-[4-(4-methyl-1,2,4-triazol-3-yl)phenyl]-2,3,7,12-tetrazatricyclo[7.4.0.0^2,6]trideca-1(9),3,5-trien-8-one], which EC50 is on record?
Answer: 50 to 500 nM

Question: How did the EC50 turn out when C[C@@H]1Cc2c(n3ncc(CC4CC4)c3n(-c3ccc(-c4nncn4C)cc3)c2=O)CN1C(=O)c1ccc(Br)c(C(F)(F)F)c1 (stereo in doubt) [Compound 40a, rac-(11R)-12-[4-bromo-3-(trifluoromethyl)benzoyl]-5-(cyclopropylmethyl)-11-methyl-7-[4-(4-methyl-1,2,4-triazol-3-yl)phenyl]-2,3,7,12-tetrazatricyclo[7.4.0.0^2,6]trideca-1(9),3,5-trien-8-one] was run?
Answer: < 50 nM

Question: For C[C@H]1Cc2c(n3ncc(CC4CC4)c3n(-c3ccc(-c4nncn4C)cc3)c2=O)CN1C(=O)c1ccc(Br)c(C(F)(F)F)c1 (stereo in doubt) [Compound 40b, rac-(11S)-12-[4-bromo-3-(trifluoromethyl)benzoyl]-5-(cyclopropylmethyl)-11-methyl-7-[4-(4-methyl-1,2,4-triazol-3-yl)phenyl]-2,3,7,12-tetrazatricyclo[7.4.0.0^2,6]trideca-1(9),3,5-trien-8-one], which EC50 is on record?
Answer: 50 to 500 nM
